How the values were obtained:
Type in all cases: cell-based, human
CSPα = CSPα oligomerization and palmitoylation in ANCL patient-derived induced neurons (quantitative immunoblotting); conditions: ANCL iNs; 72 h; compared to vehicle alone; FIG. 7B
Procedure: ANCL patient-derived fibroblasts were treated with 200 μM of L1 or Dfx, or vehicle (0.1% DMSO=Control) for 72 h, before measuring the UV-Vis absorbance spectra of immunoprecipitated CSPα eluted by trypsinization (solid lines). Spectra were re-read after 10 min of 0.1 N HCl treatment (dashed lines). The experiments shown in FIGS. 7B-7I, were conducted using ANCL fibroblasts converted to iNs using BAM+ND1 technique. […] Quantitative immunoblotting was used to measure levels of oligomerized and fully palmitoylated CSPα as well as total SNAP-25. Oligo=oligomers; Palm=palmitoylated. […] The interaction of CSPα with SNAP-25 in ANCL iNs was measured by immunoprecipitating SNAP-25 followed by quantitative immunoblotting of co-immunoprecipitated CSPα (normalized to SNAP-25 IP). Note that mainly CSPα monomers and not oligomers were detected bound to SNAP-25. Control=control sham IP without IgG. […] Turnover of SNAP-25 was determined by cycloheximide chase, while maintaining the iron-chelators or vehicle in the medium. […] In the experiments shown in FIGS. 7E-7G, ANCL iNs treated with L1, Dfx, or vehicle for 56 d and analyzed. […] The levels of lipofuscin were determined by ELISA. In the experiments shown in FIGS. 7H-7I 56 day old untreated ANCL iNs were treated with L1, Dfx, or vehicle, and analyzed. […] Data are from FIG. 7A representative of n=4, FIG. 7B n=4, FIG. 7C n=4, FIG. 7D n=7, FIG. 7F n=4, FIG. 7G n=4, FIG. 7H n=6, FIG. 7I n=3. In FIGS. 7B-7C and FIGS. 7F-7G *P<0.05; **P<0.01; ****P<0.0001 by two-tailed Student's t-test. #P<0.05 by Mann-Whitney-Wilcoxon U test. In FIG. 7D-7C and FIGS. 7H-7I **P<0.01; ***P<0.001; ****P<0.0001 by two-way ANOVA; ##P<0.01; ###P<0.001; ####P<0.0001 by Tukey's multiple comparisons test.
For pharmacological iron-chelation, deferiprone (L1; 200 μM; Biotang), deferoxamine mesylate (Dfx; 200 μM; Calbiochem), or 0.1% DMSO as vehicle control were added to the respective culture media of primary cortical neurons, fibroblasts, or iNs. When these media were changed, the fresh media contained identical concentration of the respective iron-chelator or vehicle.
Fibroblasts from an affected person carrying the L116Δ mutation were obtained, and an age-and-sex matched unaffected fibroblast line was frozen, thawed and cultured in parallel to maintain similar passage numbers. Fibroblasts were maintained in DMEM supplemented with 10% fetal bovine serum supplemented with L-glutamine, penicillin, and streptomycin. […]
For SDS-PAGE, 10-15% Laemmli gels (10.3% T and 3.3% C) were used to separate proteins on Bio-Rad apparati. […] Immunoblots were washed 5× with TBS-T and dried, then scanned on Odyssey CLx (LI-COR) and quantified using Image-Studio software (LI-COR). […]

ANCL iNs = assay: Lipofuscin autofluorescence in ANCL iNs; conditions: ANCL iNs treated for 56 d from iN conversion (prevention); compared to control; FIG. 7E
Procedure: ANCL patient-derived fibroblasts were treated with 200 μM of L1 or Dfx, or vehicle (0.1% DMSO=Control) for 72 h, before measuring the UV-Vis absorbance spectra of immunoprecipitated CSPα eluted by trypsinization (solid lines). Spectra were re-read after 10 min of 0.1 N HCl treatment (dashed lines). The experiments shown in FIGS. 7B-7I, were conducted using ANCL fibroblasts converted to iNs using BAM+ND1 technique. […] Quantitative immunoblotting was used to measure levels of oligomerized and fully palmitoylated CSPα as well as total SNAP-25. Oligo=oligomers; Palm=palmitoylated. […] The interaction of CSPα with SNAP-25 in ANCL iNs was measured by immunoprecipitating SNAP-25 followed by quantitative immunoblotting of co-immunoprecipitated CSPα (normalized to SNAP-25 IP). Note that mainly CSPα monomers and not oligomers were detected bound to SNAP-25. […] Turnover of SNAP-25 was determined by cycloheximide chase, while maintaining the iron-chelators or vehicle in the medium. […] In the experiments shown in FIGS. 7E-7G, ANCL iNs treated with L1, Dfx, or vehicle for 56 d and analyzed. […] The levels of lipofuscin were determined by ELISA. In the experiments shown in FIGS. 7H-7I 56 day old untreated ANCL iNs were treated with L1, Dfx, or vehicle, and analyzed. […]
Effect of iron chelators on the accumulation of lipofuscin was monitored by ELISA for lipofuscin or based on lipofuscin autofluorescence. […]

SNAP-25 = assay: Total SNAP-25 levels in ANCL iNs (quantitative immunoblotting); conditions: 72 h, compared to vehicle only control, FIG. 7B
Procedure: ANCL patient-derived fibroblasts were treated with 200 μM of L1 or Dfx, or vehicle (0.1% DMSO=Control) for 72 h, before measuring the UV-Vis absorbance spectra of immunoprecipitated CSPα eluted by trypsinization (solid lines). Spectra were re-read after 10 min of 0.1 N HCl treatment (dashed lines). The experiments shown in FIGS. 7B-7I, were conducted using ANCL fibroblasts converted to iNs using BAM+ND1 technique. […] Quantitative immunoblotting was used to measure levels of oligomerized and fully palmitoylated CSPα as well as total SNAP-25. Oligo=oligomers; Palm=palmitoylated. […] The interaction of CSPα with SNAP-25 in ANCL iNs was measured by immunoprecipitating SNAP-25 followed by quantitative immunoblotting of co-immunoprecipitated CSPα (normalized to SNAP-25 IP). Note that mainly CSPα monomers and not oligomers were detected bound to SNAP-25. Control=control sham IP without IgG. […] Turnover of SNAP-25 was determined by cycloheximide chase, while maintaining the iron-chelators or vehicle in the medium. […] In the experiments shown in FIGS. 7E-7G, ANCL iNs treated with L1, Dfx, or vehicle for 56 d and analyzed. […] The levels of lipofuscin were determined by ELISA. In the experiments shown in FIGS. 7H-7I 56 day old untreated ANCL iNs were treated with L1, Dfx, or vehicle, and analyzed. […]

CC(=O)N(O)CCCCCNC(=O)CCC(=O)N(O)CCCCCNC(=O)CCC(=O)N(O)CCCCCN [Dfx, N′-[5-(Acetyl-hydroxy-amino)pentyl]-N-[5-[3-(5-aminopentyl-hydroxy-carbamoyl)propanoylamino]pentyl]-N-hydroxy-butane diamide]
oligomerization of CSPα (CSPα): reduced the oligomerization | palmitoylation of CSPα (CSPα): improved palmitoylation | lipofuscin autofluorescence (ANCL iNs): reduced | SNAP-25 levels (SNAP-25): augmented

Cc1c(O)c(=O)ccn1C [L1, 3-hydroxy-1,2-dimethyl-4(1H)-pyridone]
oligomerization of CSPα (CSPα): reduced the oligomerization | palmitoylation of CSPα (CSPα): improved palmitoylation | lipofuscin autofluorescence (ANCL iNs): reduced | SNAP-25 levels (SNAP-25): augmented

Source: patent US12083105B2, “Compositions and methods for treating adult-onset neuronal ceroid lipofuscinosis (Kufs disease)” (CORNELL UNIVERSITY, priority 2020, dated 2024)
